Data: BigSolDB 2.1

CO[C@@]1(NC(=O)Cc2cccs2)C(=O)N2C(C(=O)O)=C(COC(N)=O)CS[C@@H]21
solubility (mole fraction)
Details	278.15 K	283.15 K	288.15 K	293.15 K	298.15 K	303.15 K	308.15 K
in acetonitrile	0.000452	0.000491	0.000528	0.00058	0.000621	0.000677	0.00076
in ethanol	0.000403	0.000484	0.000603	0.000739	0.000852	0.00103	0.00118
in ethyl acetate	0.000229	0.000241	0.000257	0.000267	0.000282	0.000296	0.00032
in isopropanol	4.4e-05	7.19e-05	0.000109	0.000151	0.000186	0.000243	0.000314
in methanol	0.00565	0.00658	0.00772	0.00919	0.011	0.0129	0.0149
in n-propanol	0.000209	0.000253	0.000286	0.000338	0.000394	0.000492	0.000561
